In PMC11988817, “Prediction and Prioritisation of Novel Anthelmintic Candidates from Public Databases Using Deep Learning and Available Bioactivity Data Sets” (International Journal of Molecular Sciences, 2025):
Where two headings read alike, the source gives them in different places.

How the values were obtained:
Haemonchus contortus = conditions: cited from earlier work
[1] = test system: exsheathed third-stage larvae (xL3s) of H. contortus; test: xL3 larval motility dose-response assay; set-up: species or system Haemonchus contortus; conditions: for inhibition at 50 µM / inhibition at up to 50 µM: read-out: Larval motility maximal inhibition (MI; MMI) (converted); for IC50: read-out: Larval Motility IC50; for inhibition at 50 µM / inhibition at up to 50 µM / Larval motility maximal inhibition (MI; MMI): at 50 µM; for inhibition of xL3 motility (in words): dose-response up to 50 µM
Procedure: (§1) The prioritised compounds were purchased from MolPort and evaluated for their activity by estimating their IC50 values and MMIs against xL3s of H. contortus (Haecon-5 strain) using an established method. In brief, xL3s were dispensed in 96-well plates (cat. no. 3596; Corning, Corning, NY, USA) at a density of 300 xL3s per well with individual, serially diluted compounds (9-points; 2-fold serial dilution; 50 µM to […]), in a final volume of 100 µL of LB* (= sterile lysogenic broth [LB] supplemented with 100 IU/mL penicillin, 100 µg/mL streptomycin and 0.25 µg/mL amphotericin B [Fungizone®, Thermo Fisher Scientific, Waltham, MA, USA]). Plates containing xL3s were incubated at 38 °C, 10% (v/v) CO2 and >90% relative humidity. Following 168 h of incubation, the compounds were tested by three independent experiments in triplicate. The xL3s motility and development to fourth-stage larvae (L4s) were measured with reference to two commercial anthelmintics, monepantel (Zolvix^TM; Elanco, Greenfield, IN, USA) and moxidectin (Cydectin®; Virbac, Carros, France). Negative control wells containing 0.25% (v/v) DMSO were present on all plates. […] Compound concentrations were log10-transformed and fitted using a variable slope four-parameter equation, constraining the highest value to 100% and employing a least squares (ordinary) fit model as implemented in GraphPad Prism software (v.10.0.1). A one-way analysis of variance (ANOVA) with a Dunnett’s multiple comparison test was used to establish statistically significant differences in larval motility and in development.

[2] = test system: exsheathed third-stage larvae (xL3s) of H. contortus; test: xL3 larval development (to L4) assay; set-up: species or system Haemonchus contortus; conditions: for IC50: Haemonchus contortus, read-out: Larval Development IC50
Procedure: as §1

[3] = test system: exsheathed third-stage larvae (xL3s) of H. contortus; test: abnormal larval phenotype / worm morphology assessment; set-up: species or system Haemonchus contortus; key to Abnormal Phenotype: curved (Cur); evisceration (Evi); coiled (Coi); conditions: 168 h; for Abnormal Phenotype: exhibited at 50 µM
Procedure: as §1

[4] = HepG2 cytotoxicity (CellTiter-Glo); assay type: cell-based; conditions: human
Procedure: The cytotoxicity of the prioritised compounds 3, 4 and 6 on human hepatoma (HepG2) cells was evaluated as described previously. In brief, HepG2 cells were first cultured (in an incubator at 5% (v/v) CO2, 37 °C and >90% humidity) in Dulbecco’s modified Eagle’s medium (DMEM), supplemented with 5% (v/v) foetal bovine serum (FBS). The test compounds were serially diluted (10-points; 2-fold serial dilution; top concentration of 50 μM) in DMEM plus 10% (v/v) FBS, adjusted to a DMSO concentration of 0.5% (v/v) and arrayed across a 384-well plate. Bortezomib (10 μM) was used as a positive control, and 0.5% DMSO was used as a negative control. HepG2 cells (1 × 10^3 cells per 50 μL of DMEM plus 10% FBS) were then seeded into wells of the assay plate; the plates were then incubated in 5% (v/v) CO2, 37 °C and >90% humidity for 48 h. Subsequently, cell proliferation was assessed using CellTiter-Glo (Promega, Fitchburg, WI, USA) and normalised against the negative controls and expressed as a percentage. All compounds were tested in duplicate. The half-maximal cytotoxic (CC50) values were calculated using the software Dotmatics (v.5.3) and Spotfire (v.7.11.1) employing a non-linear regression four-parameter fit analysis.

[5] = test system: adult females of H. contortus; test: adult female motility time-course assay; set-up: species or system Haemonchus contortus; conditions: 50 µM
Procedure: (§2) Subsequently, the selected compounds evaluated for in vitro activity against larvae were further assessed for their activity against adult females and males of H. contortus using an established motility assay. In brief, the compound was dispensed in 24-well plates (cat. no. 3524; Corning) at a concentration of 50 μM in 500 μL of RPMI* (RPMI 1640 medium supplemented with 4 mM L-glutamine, 100 U/mL penicillin, 100 µg/mL streptomycin and 0.25 µg/mL amphotericin B). Two positive controls, monepantel and moxidectin, were each prepared in the same manner, and a negative control containing 0.25% (v/v) DMSO was included on all plates. Three adult females or males were added to each of the wells containing either the test compound or a control compound and then incubated at 38 °C, 10% (v/v) CO2 and >90% relative humidity for 24 h. The compounds were tested in triplicate. A video recording (30 sec) of each well was taken at 0 h, 3 h, 6 h, 12 h and 24 h during the entire incubation period to assess the reduction in worm motility—scored as 3 (‘good’), 2 (‘low’), 1 (‘very low’) or 0 (‘none’). For each test or control compound, the motility scores for each of the triplicate wells were calculated, normalised with reference to the negative control (100% motility), and recorded as a percentage. A two-way ANOVA with Dunnett’s multiple comparison test was used to establish statistically significant differences against the DMSO control in worm motility for each time point.

[6] = test system: adult males of H. contortus; test: adult male motility time-course assay; set-up: species or system Haemonchus contortus; conditions: 50 µM
Procedure: as §2

[7] = Haemonchus contortus, 168 h, xL3s, 168 h
[8] = Haemonchus contortus, 168 h, xL3s, 168 h of exposure, three independent assays in triplicate

Structure (SMILES)	inhibition at 50 µM [1, 7] [%]	IC50 [1, 8] [µM]	IC50 ([2]; xL3s, 168 h of exposure) [µM]	Abnormal Phenotype [3]	also measured
COc1ccc(-c2cnc3c(n2)CCCC3)cc1C#N [APDB C798]	–	–	–	–	antiparasitic activity (in words) (Haemonchus contortus; tetrahydroquinoxalines): antiparasitic activity was observed
CC(C)Oc1cccc(-c2cnc3c(n2)CCCC3)c1 [APDB C802]	–	–	–	–	antiparasitic activity (in words) (Haemonchus contortus; tetrahydroquinoxalines): antiparasitic activity was observed
CC(C#N)(COc1cc(C#N)ccc1C(F)(F)F)NC(=O)c1ccc(OC(F)(F)F)cc1 (stereo not shown) [APDB C823]	–	–	–	–	antiparasitic activity (in words) (Haemonchus contortus): possess antiparasitic activity
COC(=O)c1ccc(-c2cc(C#N)ccn2)cc1 [Compound 1, Methyl 4-(4-cyanopyridin-2-yl)benzoate]	50	6.2 ± 0.3	> 50	curved (Cur) and Evi	inhibition of larval development (in words) ([2]; 168 h): not inhibited; Larvae with abnormal phenotype (exhibited at 50 µM) [3]: 20%
N=C(N)c1ccc(N2CCOCC2)cc1 [Compound 2, 4-(Morpholin-4-yl)benzene-1-carboximidamide]	–	1.8 ± 1.4	> 50	nil	inhibition at up to 50 µM [1, 7]: 53%
COc1ccc(-c2cncc(C#N)n2)cc1OC [Compound 3, 6-(3,4-Dimethoxyphenyl)pyrazine-2-carbonitrile]	54	7.9 ± 1.9	37.1	Evi	inhibition of xL3 motility (in words) ([1]; 168 h): inhibition of H. contortus motility was only observed; Larval development maximal inhibition (MI) ([2]; xL3s, 168 h of exposure): 100%; Larvae with abnormal phenotype (exhibited at 50 µM) [3]: 80%; altered worm morphology / abnormal phenotype (in words) [3]: induced an abnormal phenotype; CC50 at 48 h ([4]; HepG2 cells (human hepatoma)): > 40 µM
c1ccc(-c2cnc3ccccc3n2)cc1 [Compound 4, 2-Phenylquinoxaline]	–	–	–	nil	IC50 ([1]; Haemonchus contortus, 168 h): 5.8 ± 4.1 µM; IC50 ([2]; 168 h): > 50 µM; motility reduction, adult females, 24 h [5]: 40%; motility reduction, adult males, 24 h [6]: 50%; CC50 at 48 h ([4]; HepG2 cells): > 40 µM
O=C(CCC(F)(F)F)NCCc1cnccn1 [Compound 5, 4,4,4-Trifluoro-N-[2-(pyrazin-2-yl)ethyl]butanamide]	65	37.5 ± 2.5	> 50	nil	–
N#Cc1ccc(OCc2cccc(F)c2)cc1 [Compound 6, 4-[(3-Fluorophenyl)methoxy]benzonitrile]	100	7.4 ± 9.4	23.6	Evi	inhibition of xL3 motility (in words) ([1]; 168 h): inhibition of H. contortus motility was only observed; Larvae with abnormal phenotype (exhibited at 50 µM) [3]: 100%; motility reduction, adult females, 6 h [5]: 33%; motility reduction, adult females, 12 h [5]: 50%; motility reduction, adult females, 24 h [5]: 75%; effect on adult female motility (in words) ([5]; within 24 h): significant reduction in the motility; motility reduction, adult males, 6 h [6]: 50%; motility reduction, adult males, 12 h [6]: 75%; motility reduction, adult males, 24 h [6]: 100%; effect on adult male motility (in words) ([6]; within 24 h): complete immobilisation; CC50 at 48 h ([4]; HepG2 cells (human hepatoma)): > 40 µM
N#Cc1ccc(N2CCC(O)CC2)cc1 [Compound 7, 4-(4-Hydroxypiperidin-1-yl)benzonitrile]	70	2.1 ± 3.5	> 50	nil	–
CC12CN3CN(C1)CC(c1ccccc1)(C3)C2=O [Compound 8, (1S,5R,7S)-5-Methyl-7-phenyl-1,3-diazatricyclo[3.3.1.1³,⁷]decan-6-one]	42	0.8 ± 1.6	> 50	nil	–
N#Cc1ccc(NC(=O)COCC(=O)NCC(N)=O)cc1 [Compound 9, N-(Carbamoylmethyl)-2-{[(4-cyanophenyl)carbamoyl]methoxy}acetamide]	46	4.1	> 50	nil	–
CC(C)(CO)NCC#Cc1ccccc1 [Compound 10, 2-Methyl-2-[(3-phenylprop-2-yn-1-yl)amino]propan-1-ol]	50	0.8 ± 1.2	> 50	nil	motility reduction, adult females, 24 h [5]: 40%
C[C@](C#N)(COc1cc(C#N)ccc1C(F)(F)F)NC(=O)c1ccc(SC(F)(F)F)cc1 [Monepantel, N-[(2S)-2-cyano-1-[5-cyano-2-(trifluoromethyl)phenoxy]propan-2-yl]-4-(trifluoromethylsulfanyl)benzamide, reference compound]	–	0.2 ± 0.002	0.4	Coi	inhibition at up to 50 µM [1, 7]: 100%; Larvae with abnormal phenotype (exhibited at 50 µM) [3]: 100%; motility reduction, adult females, 6 h [5]: 67%; motility reduction, adult females, 12 h [5]: 67%; motility reduction, adult females, 24 h [5]: 67%; motility reduction, adult males, 6 h [6]: 67%; motility reduction, adult males, 12 h [6]: 67%; motility reduction, adult males, 24 h [6]: 100%
CO/N=C1\C[C@]2(C[C@@H]3C[C@@H](C/C=C(\C)C[C@@H](C)/C=C/C=C4\CO[C@@H]5[C@H](O)C(C)=C[C@@H](C(=O)O3)[C@]45O)O2)O[C@H](/C(C)=C/C(C)C)[C@H]1C [Moxidectin, (1R,4S,4'E,5'S,6R,6'S,8R,10E,13R,14E,16E,20R,21R,24S)-21,24-dihydroxy-4'-methoxyimino-5',11,13,22-tetramethyl-6'-[(E)-4-methylpent-2-en-2-yl]spiro[3,7,19-trioxatetracyclo[15.6.1.14,8.020,24]pentacosa-10,14,16,22-tetraene-6,2'-oxane]-2-one, reference compound]	–	0.5	45	nil	Larval motility maximal inhibition (MI; MMI) ([1]; xL3s, 168 h): 75%; Larval motility maximal inhibition (MI; MMI) ([1]; xL3s, 168 h, listed as moxidectin): 5%; IC50 ([1]; xL3s, 168 h of exposure, three independent assays in triplicate): 0.8 ± 0.4 µM; Larval development maximal inhibition (MI) ([2]; xL3s, 168 h of exposure): 100%
